Test results from patent publication US9751885B2, “Cyclopropanamine compound and use thereof” (Takeda Pharmaceutical Company Limited, priority 2012, dated 2017).
Structures can show the parent of a compound that is named as a salt. Where two headings read alike, the source gives them in different places. Marks after values point to notes of the source that are not given here.

Tests used:
[1] = target: MAO-B enzyme (Homo sapiens (Human), UniProt P27338); assay: Measurement of MAO-B inhibitory activity (MAO-Glo Assay); conditions: read-out: MAO-B IC50 value;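 also: luminescence read-out, compound preincubated 10 min with enzyme then reacted 60 min at room temperature, inhibition relative to enzyme reaction without compound, blank lacking enzyme and compound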
[2] = system: white blood cell number, red blood cell number, platelet number; assay: Evaluation of blood cell number in mouse; assay type: in vivo; conditions: oral, Day 2 after administration
How it was run: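 Male ICR mice dosed orally at 1, 10, 50 or 100 mg/kg (suspension in 0.5% methylcellulose/0.02% citric acid/water); whole blood collected on Day 2. White cell, red cell and platelet counts per unit volume by automated haematology analyser, expressed as % of mean of untreated control group.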

[3] = system: Gad1 H3K4me2 level in rat primary culture neurons; assay: Gad1 H3K4 methylation induction activity in rat primary culture neurons (ChIP-qPCR); assay type: cell-based; conditions: Neuron, 72 h, control without compound = 100%
Method: Gad1 H3K4 Methylation Induction Activity in Rat Primary Culture Neurons
Thereafter, the compound was added to final concentrations of 1 or 10 μM, and the cells were further cultured for 3 days. The culture supernatant was aspirated, ice-cold PBS was added, and the cell suspension was collected on ice using CELL SCRAPER (IWAKI). […] (750 μL). Furthermore, 0.3% NP40/cell lysis buffer 1 (750 μL) was added, and the cells were lysed by incubating for 5 min on ice.
Using the DNA obtained by the chromatin immunoprecipitation as a template, quantitative PCR of the Gad1 gene upstream genomic region was performed, and the measurement value was taken as the Gad1 H3K4me2 level. […] The Gad1 H3K4me2 induction by the compound was expressed by the H3K4me2 level when the compound was added, as compared to the H3K4me2 level of the control (without addition of the compound) as 100%.

[4] = target: human LSD1(172-833) (Homo sapiens (Human), UniProt O60341); assay: Measurement of LSD1 inhibitory activity (time-resolved fluorescence, biotin-histone H3 mono methylated K4 peptide); assay type: biochemical
How it was run: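 Remaining signal detected by TR-FRET after 60 min with europium anti-histone H3 antibody and streptavidin-XL665 in potassium fluoride/0.1% BSA.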

[5] = target: MAO-A enzyme (Homo sapiens (Human), UniProt P21397); assay: Measurement of MAO-A inhibitory activity (MAO-Glo Assay); assay type: biochemical
Method: The MAO-A inhibitory activity evaluation described below followed the protocol of MAO-Glo (registered trademark) Assay of Promega KK.
A test compound dissolved in 4% DMSO was added by 12.5 μL to 25 μL reaction solution (100 mM HEPES (pH 7.5), 5% glycerol) containing 400 ng of MAO-A enzyme (Sigma-Aldrich Co. LLC.), and the mixture was reacted at room temperature for 10 min. […] After reaction at room temperature for 60 min, Luciferine detection reagent (Promega KK) (50 μL) was added to terminate the reaction. After reaction at room temperature for min with stirring, the luminescence was measured by Envision (PerkinElmer). The MAO-A inhibitory rate (%) of the test compound was calculated by the following formula. inhibitory rate(%)=(1−(test compound count−blank)÷(control−blank))×100
The count of the MAO-A enzyme reaction mixture under compound non-addition conditions is indicated as control, and the count under compound non-addition and MAO-A enzyme non-addition conditions is indicated as blank.

[6] = Evaluation of hippocampal distribution in mouse; assay type: in vivo; conditions: male ICR mice, 10 mg/kg oral; for concentration at 1 h: 1 hr after administration; for concentration at 0.5 h: 0.5 hr after administration
How it was run: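 Male ICR mice dosed orally at 10 mg/kg as suspension in 0.5% methylcellulose/0.02% citric acid/water. Plasma and hippocampus sampled together at 0.5, 1 or 1.5 h; LC/MS/MS concentrations gave hippocampus/plasma ratio.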

[7] = Rattus norvegicus, read-out: Gad1 H3K4me2 induction activity (%), compound 1 μM, 3 days, rat primary culture neurons
[8] = Rattus norvegicus, read-out: Gad1 H3K4me2 induction activity (%), compound 10 μM, 3 days, rat primary culture neurons
[9] = compound 1 μM, 3 days, rat primary culture neurons, read-out: Gad1 H3K4me2 induction activity (%)
[10] = compound 10 μM, 3 days, rat primary culture neurons, read-out: Gad1 H3K4me2 induction activity (%)
[11] = hippocampus, read-out: hippocampus concentration (mean)
[12] = plasma, read-out: plasma concentration (mean)

MAO-B enzyme, sequence (P27338 whole entry): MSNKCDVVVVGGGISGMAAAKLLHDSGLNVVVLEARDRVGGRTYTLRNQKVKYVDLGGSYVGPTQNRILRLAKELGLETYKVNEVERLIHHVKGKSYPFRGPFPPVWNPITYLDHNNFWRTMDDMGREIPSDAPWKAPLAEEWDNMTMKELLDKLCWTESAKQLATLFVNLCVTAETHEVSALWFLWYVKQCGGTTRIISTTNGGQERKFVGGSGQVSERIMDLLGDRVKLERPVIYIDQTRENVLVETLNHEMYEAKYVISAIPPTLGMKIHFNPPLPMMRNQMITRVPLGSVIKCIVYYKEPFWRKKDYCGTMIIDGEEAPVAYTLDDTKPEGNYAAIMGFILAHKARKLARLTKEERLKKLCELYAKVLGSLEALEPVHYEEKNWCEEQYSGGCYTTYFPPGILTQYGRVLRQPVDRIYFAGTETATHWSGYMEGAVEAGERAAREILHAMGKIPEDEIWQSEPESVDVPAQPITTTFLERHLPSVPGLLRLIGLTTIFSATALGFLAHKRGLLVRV
MAO-A enzyme, sequence (P21397 whole entry): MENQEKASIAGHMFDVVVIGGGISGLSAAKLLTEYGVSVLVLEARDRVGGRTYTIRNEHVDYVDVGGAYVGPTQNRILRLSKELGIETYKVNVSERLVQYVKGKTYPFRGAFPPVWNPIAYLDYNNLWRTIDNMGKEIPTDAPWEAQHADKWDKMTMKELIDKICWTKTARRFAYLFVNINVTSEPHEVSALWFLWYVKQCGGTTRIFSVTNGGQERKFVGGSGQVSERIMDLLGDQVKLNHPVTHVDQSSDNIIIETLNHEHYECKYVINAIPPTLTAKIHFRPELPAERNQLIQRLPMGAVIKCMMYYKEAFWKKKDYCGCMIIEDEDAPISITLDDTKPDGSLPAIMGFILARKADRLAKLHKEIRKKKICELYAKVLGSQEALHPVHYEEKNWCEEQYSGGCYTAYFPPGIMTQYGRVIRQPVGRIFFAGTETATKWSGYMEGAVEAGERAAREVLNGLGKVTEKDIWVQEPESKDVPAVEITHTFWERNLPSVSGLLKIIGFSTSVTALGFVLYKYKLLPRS

| Compound | IC50 [1] [µM] | platelet number, percentage of compound administration group compared to control group, mean ([2]; 10 mg/kg) [%] | red blood cell number, percentage of compound administration group compared to control group, mean ([2]; 10 mg/kg) [%] | white blood cell number, percentage of compound administration group compared to control group, mean ([2]; 10 mg/kg) [%] | platelet number, percentage of compound administration group compared to control group, mean ([2]; 50 mg/kg) | red blood cell number, percentage of compound administration group compared to control group, mean ([2]; 50 mg/kg) | white blood cell number, percentage of compound administration group compared to control group, mean ([2]; 50 mg/kg) | activity at 1 µM [3, 7] [%] | activity at 10 µM [3, 8] [%] | IC50 [4] [µM] | IC50 [5] [µM] | platelet number, percentage of compound administration group compared to control group, mean ([2]; 100 mg/kg) [%] | red blood cell number, percentage of compound administration group compared to control group, mean ([2]; 100 mg/kg) [%] | white blood cell number, percentage of compound administration group compared to control group, mean ([2]; 100 mg/kg) [%] | activity at 1 µM [3, 9] [%] | activity at 10 µM [3, 10] [%] | concentration at 1 h [6, 11] [ng/g] | concentration at 1 h [6, 12] [ng/mL] | concentration at 0.5 h [6, 11] [ng/g] | concentration at 0.5 h [6, 12] [ng/mL] |
| --- | --- | --- | --- | --- | --- | --- | --- | --- | --- | --- | --- | --- | --- | --- | --- | --- | --- | --- | --- | --- |
| O=C(Nc1ccc(-c2ncccn2)cc1)c1cccc([C@@H]2C[C@H]2NCC2CC2)c1 (relative stereo) [Example 58, 3-(trans-2-((cyclopropylmethyl)amino)cyclopropyl)-N-(4-(pyrimidin-2-yl)phenyl)benzamide dihydrochloride] | > 10 | 99.4 | 99.7 | 94.2 | 102.9^a % | 101.3^a % | 85.8^a % | 126 | 116 | < 0.1 | > 10 |  |  |  |  |  |  |  |  |  |
| O=C(Nc1cnn(CC2CC2)c1)c1cccc([C@@H]2C[C@H]2NCC2CC2)c1 (relative stereo) [Example 77, 3-(trans-2-((cyclopropylmethyl)amino)cyclopropyl)-N-(1-(cyclopropylmethyl)-1H-pyrazol-4-yl)benzamide dihydrochloride] | > 10 | 99.6 | 98.2 | 147.9 |  |  |  | 165 | 163 | < 0.1 | > 10 | 96.6 | 100.9 | 98.2 |  |  |  |  |  |  |
| Cc1cc(NC(=O)c2cccc([C@@H]3C[C@H]3NCC3CC3)c2)on1 (relative stereo) [Example 106, 3-(trans-2-((cyclopropylmethyl)amino)cyclopropyl)-N-(3-methyl-1,2-oxazol-5-yl)benzamide hydrochloride] | > 10 | 94.6 | 99.4 | 114.8 |  |  |  |  |  | < 0.1 | > 10 | 97.2 | 101.9 | 89.0 | 139 | 132 | 107 | 33 |  |  |
| Cc1nnc(NC(=O)c2ccc(F)c([C@@H]3C[C@H]3NCC3CC3)c2)s1 (relative stereo) [Example 109, 3-(trans-2-((cyclopropylmethyl)amino)cyclopropyl)-4-fluoro-N-(5-methyl-1,3,4-thiadiazol-2-yl)benzamide dihydrochloride] | > 10 | 94.3 | 96.3 | 88.3 |  |  |  |  |  | < 0.1 | > 10 | 97.8 | 98.2 | 107.4 | 117 | 96 |  |  | 1610 | 1250 |
| Cc1ncc(NC(=O)c2cccc([C@@H]3C[C@H]3NC3CCOCC3)c2)s1 (relative stereo) [Example 212, N-(2-methyl-1,3-thiazol-5-yl)-3-(trans-2-(tetrahydro-2H-pyran-4-ylamino)cyclopropyl)benzamide dihydrochloride] | > 10 |  |  |  |  |  |  |  |  | < 0.1 | > 10 |  |  |  | 201 | 289 |  |  |  |  |
